Entries after “also recorded” stand apart in the source; their conditions may differ. Where a SMILES comes first, the peptide text is derived from it.
Assays:
[1] = test system: primary lung endothelial cells; assay: MTT proliferation assay, primary lung endothelial cells; format: cell-based, human; details: peptide 4.5 μM; day 3, 7 and 9; n=5 cell lines
Method: Human pulmonary endothelial cells were isolated from bronchial tissue obtained during lung transplantation. Blood vessels were dissected free from surrounding tissue and cut longitudinally and then cut into approximately 5 mm segments. Blood vessel segments were then placed in a 15 ml falcon tube containing 10 ml of digestive buffer, (1 mg (250 U)/ml type 2 collagenase, 1 U/ml dispase, 10 mg/ml BSA) the tube was placed in the incubator for 10 minutes and agitated every 2 minutes. Digestive mixture was changed every 10 minutes for a total of 50 minutes. 1/10 volume of FBS was added to the supernantants that were removed every 10 minutes. Supernatants were then centrifuged at 200 g for 5 minutes. Supernantants were removed and cells were washed with culture medium, this contained 10% FBS, 10 μg/ml endothelial cell growth supplement, 20 U/ml heparin and 2% antibiotics, and centrifuged at 200 g for 5 minutes. Supernantants were removed and cells were placed in 75 cm^2 vented tissue culture flasks (Falcon Labware) containing 10 ml of culture medium, and incubated for 1 hour at 37° C. […] Proliferation was assessed using an MTT assay (SIGMA-aldrich, Missouri, USA) at day 3, 7 and 9. […] The specific absorption of each well was measured at 690 nm (reference) and 570 nm.

[2] = test system: asthmatic smooth muscle cells; assay: MTT proliferation assay, asthmatic airway smooth muscle cells; format: cell-based, human; details: peptide 4.5 μM; all timepoints of FIG. 11; n=4 ASM cell lines
Source text: Human airway smooth muscle cells were isolated by microdissection from bronchial tissue obtained from either bronchoscopy, lung tissue obtained from lung transplants, or lung tissue resected at thoracotomy. Ethical approval for the use of the lung tissue for/in vitro/experimentation was granted by the Human Ethics Committee of the University of Sydney, and the Sydney South West Area Health Service, and informed consent was received from all subjects. Asthmatic ASM cells were isolated from airway biopsies, and all but one of the non asthmatic derived ASM cells were isolated from either resected lung tissue, or lung transplantation (both donor and recipient) This isolation and culture of ASM cells was carried out according to a method described by Johnson et al. 1995. Briefly, with the use of a dissecting microscope, sterile equipment and aseptic technique, bronchial airways were dissected from the surrounding parenchyma and cut longitudinally. The bronchi were then briefly dipped in 70% (v/v) ethanol in water to kill any surface organisms. The bronchi were then washed in sterile Hanks balanced salt solution three times and pinned down in a sterile Petri dish with the epithelial surface facing upwards. […] Proliferation was assessed using an MTT assay (SIGMA-aldrich, Missouri, USA) at day 3, 7 and 9. […] The specific absorption of each well was measured at 690 nm (reference) and 570 nm.

Compound	inhibition of proliferation of primary lung endothelial cells [1]	inhibition of FBS-induced proliferation of asthmatic smooth muscle cells [2]
CSCC[C@H](NC(=O)[C@@H](N)[C@@H](C)O)C(=O)N1CCC[C@H]1C(=O)N[C@@H](Cc1ccccc1)C(=O)N[C@@H](CC(C)C)C(=O)N[C@@H](Cc1ccccc1)C(=O)N[C@@H](CS)C(=O)N[C@@H](CC(N)=O)C(=O)N[C@H](C(=O)N[C@@H](CC(N)=O)C(=O)N[C@@H](CC(=O)O)C(=O)N[C@H](C(=O)N[C@@H](CS)C(=O)N[C@@H](CC(N)=O)C(=O)N[C@@H](Cc1ccccc1)C(=O)N[C@@H](C)C(=O)N[C@@H](CO)C(=O)N[C@@H](CCCNC(=N)N)C(=O)N[C@@H](CC(N)=O)C(=O)N[C@@H](CC(=O)O)C(=O)N[C@@H](Cc1ccc(O)cc1)C(=O)N[C@@H](CO)C(=O)N[C@@H](Cc1ccc(O)cc1)C(=O)N[C@@H](Cc1c[nH]c2ccccc12)C(=O)N[C@@H](CC(C)C)C(=O)O)C(C)C)C(C)C [T7] (H-TMPFLFCNVNDVCNFASRNDYSYWL-OH; N-terminus and C-terminus assumed)	able to inhibit the proliferation; also recorded: inhibited proliferation at both day 7 and day 9	Neither T3 nor T7 peptides were shown to be able to inhibit; also recorded: not inhibited
CSCC[C@H](NC(=O)[C@@H](NC(=O)[C@@H](NC(=O)[C@H](Cc1ccccc1)NC(=O)[C@H](CCCNC(=N)N)NC(=O)[C@H](CCC(N)=O)NC(=O)[C@@H](N)CC(C)C)[C@@H](C)O)[C@@H](C)O)C(=O)N1CCC[C@H]1C(=O)N[C@@H](Cc1ccccc1)C(=O)N[C@@H](CC(C)C)C(=O)N[C@@H](Cc1ccccc1)C(=O)N[C@@H](CS)C(=O)N[C@@H](CC(N)=O)C(=O)N[C@H](C(=O)N[C@@H](CC(N)=O)C(=O)N[C@@H](CC(=O)O)C(=O)N[C@H](C(=O)N[C@@H](CS)C(=O)N[C@@H](CC(N)=O)C(=O)N[C@@H](Cc1ccccc1)C(=O)O)C(C)C)C(C)C [T3] (H-LQRFTTMPFLFCNVNDVCNF-OH; N-terminus and C-terminus assumed)	able to inhibit the proliferation; also recorded: significantly inhibited by the presence of T3 peptide at all timepoints	Neither T3 nor T7 peptides were shown to be able to inhibit; also recorded: not inhibited
